In article PMC10223284, “Category-Based Toxicokinetic Evaluations of Data-Poor Per- and Polyfluoroalkyl Substances (PFAS) using Gas Chromatography Coupled with Mass Spectrometry” (Toxics, 2023):
Several values for one entry are separate records, joined by “and”; a condition that tells them apart may be missing. Equal values may be shown once. Read-outs that look alike come from different tables or passages of the source.

How the values were obtained:
[1] = In vitro-in vivo extrapolation (IVIVE) to Css and administered equivalent dose (AED); design: species or system human; conditions: for Clhep: IVIVE, hepatocyte Clint scaled to whole-liver clearance; for AED: administered equivalent dose from LOEC and Css; for Fub: fub=fup/(B:P), Fub set to 1 if needed; for CLint: scaled with HPGL 110 mill cells/g, Vl 1596 g
Summary of the method: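 Measured plasma protein binding (fup) and hepatocyte Clint served as IVIVE inputs to estimate human steady-state plasma concentration (Css). fup was converted to blood unbound fraction using blood:plasma partitioning, and Clint was scaled to whole-liver clearance (L/h). AEDs were derived by combining Css with published in vitro lowest-observed effective concentrations.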

[2] = Abiotic loss in negative controls of the hepatocyte clearance assay (cell-free media, metabolically inactivated hepatocytes); format: in vitro ADME; conditions: for Hep_Stab_Fail: flag for stability failure in hepatocyte clearance assay controls (1 or Fst = fail, 0 = pass)
Summary of the method: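 Test compound at 1 μM incubated at 37 °C with shaking in complete William's medium E, either cell-free or with metabolically inactivated hepatocytes, then quenched with ice-cold acetonitrile for quantitative analysis.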

in vitro = conditions: both, human, plasma
human primary cells = conditions: cited from earlier work
human plasma = experiment: Chemical stability in plasma over the UC assay time course (T5hr/T1hr); conditions: for Time 1 hr, Run-specific Avg / Time 1 hr: amount measured in plasma sample at 1 hr; for Time 1 hr, Run-specific Avg / Time 5 hr, Run-specific Avg: run average; for Time 1 hr, Run-specific Avg / Time 5 hr, Run-specific Avg / Time 1 hr / Time 5 hr: unit not given; for Time 5 hr, Run-specific Avg / Time 5 hr: amount measured in plasma sample at 5 hr; for PPB_Stab_Fail: flag for stability failure in the plasma protein binding assay (1 = fail, 0 = pass); for Fstable.Med: median fraction stable in plasma, UC assay Level4; for Time 1 hr / Time 5 hr: replicates A, B, C
[3] = Hepatic metabolic stability (hepatocyte clearance) assay, substrate depletion; format: in vitro ADME, human; conditions: both sexes, human; for half-life at 1 μM: read-out: Linear Regression Results, Best-Fit Values, Half Life
Summary of the method: (§1)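 Pooled 50-donor human cryopreserved hepatocytes (50,000 cells/100 μL) incubated with 1 μM compound at 37 °C with shaking. Parent loss quantified against internal standards over time to T240 in triplicate; T½ and Clint (μL/min/million cells) from ln concentration vs time, corrected for abiotic loss in cell-free and inactivated-hepatocyte controls.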

[4] = test system: pooled human cryopreserved primary hepatocyte suspensions; experiment: as above; format: in vitro ADME; conditions: for Linear Regression Results, Best-Fit Values, Slope: hepatocyte time course
Summary of the method: as §1

[5] = Assuming 1 mg/kg/day dose rate, BW 70 kg
[6] = human steady-state plasma concentration, assuming 1 mg/kg/day dosage
[7] = Fraction Unbound (fu), Run-specific Avg, average of one UC run
[8] = Mean Fu, mean fraction unbound in human plasma over all UC replicates/runs
[9] = Mean fu, fraction unbound in human plasma, ultracentrifugation, some values based on eLOQ
[10] = BioSeek lowest-observed effect concentration used for AED
[11] = minimum lowest-observed effect concentration, BioSeek platform
[12] = mean T5hr/T1hr ratio in plasma over all replicates/runs
[13] = hepatocytes, background-subtracted, read-out: Bkgd-Sub Clearance (µL/min/106 hepatocytes)
[14] = hepatocytes, hepatocyte clearance, Conc 1000 nM, not background adjusted, read-out: Unadj Clint
[15] = hepatocytes, pooled human hepatocyte suspensions, 1 μM, read-out: In Vitro Clint
[16] = hepatocytes, unadjusted hepatocyte intrinsic clearance, read-out: Unadj in vitro Clint
[17] = hepatocytes, hepatocyte time course, NS = slope not significant, read-out: Linear Regression Results, Best-Fit Values, Clearance
[18] = hepatocytes, hepatocyte time course, NS = slope not significant
[19] = hepatocyte incubation, Rep 1-3, start conc 1000 nM
[20] = buffer, no cells control, 0 vs 240 min, read-out: No Cells BkgdCl, Half Life
[21] = heat treated hepatocytes, Rep 1-3
[22] = Fraction Unbound (fu), individual replicates A, B, C of the UC run named in c8
[23] = s9, Bayesian analysis median, 1 μM assay concentration (Table S9), read-out: Clint.1.Med

NC(=O)C(F)(F)C(F)(F)C(F)(F)F [Heptafluorobutyramide]
Css [1, 5]: 0.0422 mg/L and 0.20 uM
Clhep [1]: 63.013 L/h
AED [1]: 101.0389 mg/kg/day
Fub [1]: 1
Css [1, 6]: 0.20 µM
CLint [1]: 3502422 µL/min
Hep_Stab_Fail [2]: 0
Negative Controls, No cells (NC), concentration at 240 min ([2]; Rep 1-3): 409.23 nM and 475.181 nM and 464.709 nM
fraction unbound (in vitro; [7]): 0.6
fraction unbound (in vitro; Fraction Unbound (fu), replicate A, individual replicate A of the UC run dated in c8): 0.667
fraction unbound (in vitro; Fraction Unbound (fu), replicate B, individual replicate B of the UC run dated in c8): 0.57
fraction unbound (in vitro; Fraction Unbound (fu), replicate C, individual replicate C of the UC run dated in c8): 0.565
fraction unbound (in vitro; Mean Fu (fraction unbound), mean over all UC runs and replicates, human plasma): 0.603
fraction unbound (in vitro; [8]): 0.603
fraction unbound (in vitro; [9]): 0.603
fraction unbound (in vitro; Mean fu, fraction unbound in human plasma, used for IVIVE): 0.603
LOEC (human primary cells; [10]): 20.00 µM
LOEC (human primary cells; [11]): 20 µM
Time 1 hr, Run-specific Avg (human plasma): 9336.10
Time 5 hr, Run-specific Avg (human plasma): 8817.96
Stability (T5hr/ T1hr), Run-specific Avg (human plasma; average of one UC run): 0.945
PPB_Stab_Fail (human plasma): 0
Mean Stability (human plasma; [12]): 0.963
Mean Stability (T5hr/T1hr) (human plasma; mean over all UC runs and replicates, human plasma): 0.963
Fstable.Med (human plasma): 0.999
hepatocyte CLint at 1 μM [3, 13]: 19.9 µL/min/1e6 cells
hepatocyte CLint at 1 μM ([3]; hepatocytes, hepatocyte clearance, Conc 1000 nM, background adjusted, read-out: Bkgd Adj Clint): 19.9 µL/min/1e6 cells
hepatocyte CLint at 1 μM [3, 14]: 19.9 µL/min/1e6 cells
hepatocyte CLint at 1 μM ([3]; hepatocytes, hepatocyte intrinsic clearance adjusted for background (abiotic) loss, read-out: Bkgd_adj_Clint): 19.9 µL/min/1e6 cells
hepatocyte CLint at 1 μM [3, 15]: 19.9 µL/min/1e6 cells
hepatocyte CLint at 1 μM [3, 16]: 19.9 µL/min/1e6 cells
hepatocyte CLint at 1 μM [3, 17]: 19.9 µL/min/1e6 cells
half-life at 1 μM [3, 18]: 1.16 h
Concentration (nM), Time 0 min [4, 19]: 988.297 nM and 784.776 nM and 618.66 nM
Concentration (nM), Time 15 min [4, 19]: 550.618 nM and 957.096 nM and 714.95 nM
Concentration (nM), Time 30 min [4, 19]: 499.471 nM and 561.118 nM and 588.537 nM
Concentration (nM), Time 60 min [4, 19]: 417.033 nM and 313.668 nM and 348.927 nM
Concentration (nM), Time 120 min [4, 19]: 201.833 nM and 266.362 nM and 226.765 nM
Linear Regression Results, Best-Fit Values, Slope [4]: -0.009975

OCC(F)(F)C(F)(F)C(F)(F)C(F)(F)C(F)(F)C(F)(F)C(F)(F)C(F)(F)CO [1H,1H,10H,10H-Perfluorodecane-1,10-diol]
Css [1, 5]: 0.68 mg/L and 1.47 uM
Clhep [1]: 4.275 L/h
AED [1]: 1.3619 mg/kg/day
Fub [1]: 0.008545
Css [1, 6]: 1.47 µM
CLint [1]: 8753422 µL/min
half-life at 1 μM ([2]; both sexes, human, heat treated hepatocytes control, 0 vs 240 min, read-out: HT BkgdCl, Half Life): 4.63 h
half-life at 1 μM [2, 20]: 3.43 h
Hep_Stab_Fail [2]: 0
HT BkgdCl, Slope ([2]; heat treated hepatocytes control, 0 vs 240 min): -0.002496
Negative Controls, Heat Treated (HT), concentration at 0 min [2, 21]: 370.156 nM and 373.519 nM and 421.129 nM
Negative Controls, Heat Treated (HT), concentration at 240 min [2, 21]: 211.286 nM and 241.673 nM and 189.092 nM
No Cells BkgdCl, Slope ([2]; no cells control, 0 vs 240 min): -0.003368
Negative Controls, No cells (NC), concentration at 0 min ([2]; Rep 1-3): 394.883 nM and 393.112 nM and 400.596 nM
Negative Controls, No cells (NC), concentration at 240 min ([2]; Rep 1-3): 205.477 nM and 157.76 nM and 169.683 nM
fraction unbound (in vitro; [7]): 0.84
fraction unbound (in vitro; Fraction Unbound (fu), Run-specific Avg, average of one UC run (run date in line above)): 0.00495
fraction unbound (in vitro; [22]): 0.83
fraction unbound (in vitro; Fraction Unbound (fu), replicates A, B, C, single replicate of one UC run (aqueous fraction / Time 5 hr)): 0.00438
fraction unbound (in vitro; [8]): 0.841
fraction unbound (in vitro; Mean Fu, mean fraction unbound over all replicates and runs, UC assay, human plasma): 0.00469
fraction unbound (in vitro; [9]): 0.0047
LOEC (human primary cells; [10]): 2.00 µM
LOEC (human primary cells; [11]): 2 µM
Time 1 hr (human plasma): 7311.43 and 5462.42 and 6036.15
Time 1 hr, Run-specific Avg (human plasma): 6270.00
Time 5 hr (human plasma): 3659.49 and 4052.89 and 4429.19
Time 5 hr, Run-specific Avg (human plasma): 3856.19
Stability (T5hr/ T1hr), Run-specific Avg (human plasma; average of one UC run): 0.615
Stability (T5hr/ T1hr), Run-specific Avg (human plasma; average of one UC run (run date in line above)): 0.958
PPB_Stab_Fail (human plasma): 0
Mean Stability (human plasma; [12]): 0.657
Mean Stability (human plasma; mean T5hr/T1hr ratio over all replicates and runs, plasma): 1.003
Fstable.Med (human plasma): 0.997
Stability (T5hr/ T1hr), replicates A, B, C (human plasma; single replicate of one UC run): 1.07 and 1.007 and 0.9333 and 0.9811 and 1.003 and 1.254
hepatocyte CLint at 1 μM [3, 13]: 56.6 µL/min/1e6 cells
hepatocyte CLint at 1 μM [3, 14]: 56.6 µL/min/1e6 cells
hepatocyte CLint at 1 μM [3, 15]: 49.9 µL/min/1e6 cells
hepatocyte CLint at 1 μM [3, 16]: 56.6 µL/min/1e6 cells
hepatocyte CLint at 1 μM [3, 17]: 56.6 µL/min/1e6 cells
half-life at 1 μM [3, 18]: 0.408 h
hepatocyte CLint at 1 μM [3, 23]: 115 µL/min/1e6 cells
Concentration (nM), Time 0 min [4, 19]: 503.86 nM and 483.613 nM and 411.089 nM
Concentration (nM), Time 15 min [4, 19]: 181.506 nM and 316.777 nM and 270.544 nM
Concentration (nM), Time 30 min [4, 19]: 207.766 nM and 203.542 nM and 107.454 nM
Linear Regression Results, Best-Fit Values, Slope [4]: -0.0283
In Vitro Clint ([4]; pooled human hepatocyte suspensions, 1 μM): 49.86 μL/min/10^6 cells

OCCC(F)(F)C(F)(F)C(F)(F)C(F)(F)F [4:2 Fluorotelomer alcohol]
Css [1, 5]: 0.0547 mg/L and 0.21 uM
Clhep [1]: 51.672 L/h
AED [1]: 9.6507 mg/kg/day
Fub [1]: 0.3055
Css [1, 6]: 0.21 µM
CLint [1]: 6620368 µL/min
half-life at 1 μM [2, 20]: 2.92 h
Hep_Stab_Fail [2]: 0
No Cells BkgdCl, Slope ([2]; no cells control, 0 vs 240 min): -0.003956
Negative Controls, No cells (NC), concentration at 0 min ([2]; Rep 1-3): 10000 nM
Negative Controls, No cells (NC), concentration at 240 min ([2]; Rep 1-3): 3870 nM
fraction unbound (in vitro; [7]): 0.17
fraction unbound (in vitro; [22]): 0.206
fraction unbound (in vitro; [9]): 0.168
LOEC (human primary cells; [10]): 2.00 µM
LOEC (human primary cells; [11]): 2 µM
Time 1 hr (human plasma): 13164.3 and 12271.8 and 13036
Time 1 hr, Run-specific Avg (human plasma): 12824.02
Time 5 hr (human plasma): 8478.66 and 10253.1 and 9709.96
Time 5 hr, Run-specific Avg (human plasma): 9365.87
Stability (T5hr/ T1hr), Run-specific Avg (human plasma; average of one UC run): 0.730
PPB_Stab_Fail (human plasma): 0
Mean Stability (human plasma; [12]): 0.740
Fstable.Med (human plasma): 0.21
hepatocyte CLint at 1 μM [3, 13]: 37.7 µL/min/1e6 cells
hepatocyte CLint at 1 μM [3, 14]: 45.6 µL/min/1e6 cells
hepatocyte CLint at 1 μM [3, 15]: 37.7 µL/min/1e6 cells
hepatocyte CLint at 1 μM [3, 16]: 45.6 µL/min/1e6 cells
hepatocyte CLint at 1 μM [3, 17]: 45.6 µL/min/1e6 cells
half-life at 1 μM [3, 18]: 0.506 h
hepatocyte CLint at 1 μM [3, 23]: 306 µL/min/1e6 cells
Concentration (nM), Time 0 min [4, 19]: 12113.7 nM and 7313.14 nM
Concentration (nM), Time 15 min [4, 19]: 1692.86 nM and 1166.53 nM and 1804.74 nM
Concentration (nM), Time 30 min [4, 19]: 339.856 nM and 404.508 nM and 458.803 nM
Concentration (nM), Time 60 min [4, 19]: 47.9903 nM and 38.9317 nM and 58.7749 nM
Concentration (nM), Time 120 min [4, 19]: 18.0283 nM and 18.9716 nM and 31.4203 nM
Concentration (nM), Time 240 min [4, 19]: 21.5215 nM and 17.4089 nM and 13.0166 nM
Linear Regression Results, Best-Fit Values, Slope [4]: -0.02281
